# According to ChEMBL document CHEMBL3885881, “DrugMatrix”:
# Organism: Rattus norvegicus
# Assay: DrugMatrix - Regimen: Daily Repeat
# Assay type: toxicity, organism-based, Sprague-Dawley
# Set-up: regimen Daily Repeat, gender Male, age 6-8 weeks
# Settings: in vivo, po, 30 mg/kg, route oral GAVAGE, dose level Low, vehicle .5 % CMC; for BASOPHIL / EOSINOPHIL / ERYTHROCYTE COUNT / HEMATOCRIT / HEMOGLOBIN / LEUKOCYTE COUNT / LYMPHOCYTE / MEAN CORPUSCULAR HEMOGLOBIN / MEAN CORPUSCULAR HEMOGLOBIN CONCENTRATION / MEAN CORPUSCULAR VOLUME / MONOCYTE / NEUTROPHIL / PLATELET COUNT: tissue Blood; for ALANINE AMINOTRANSFERASE / ALBUMIN / ALKALINE PHOSPHATASE / ASPARTATE AMINOTRANSFERASE / BLOOD UREA NITROGEN / CHLORIDE / CHOLESTEROL / CREATINE PHOSPHOKINASE / CREATININE / GLUCOSE / PHOSPHORUS / POTASSIUM / SODIUM / TOTAL BILIRUBIN / TOTAL PROTEIN: tissue Plasma
smiles,measurement,setting,value
CCCc1cc(=O)[nH]c(=S)[nH]1 [PROPYLTHIOURACIL],BASOPHIL,"72 h, time 3 day",0%
same,EOSINOPHIL,"72 h, time 3 day",0.67%
same,ERYTHROCYTE COUNT,"72 h, time 3 day",5.84 x10E6/uL
same,HEMATOCRIT,"72 h, time 3 day",36.23%
same,HEMOGLOBIN,"72 h, time 3 day",14.13 G/DL
same,LEUKOCYTE COUNT,"72 h, time 3 day",20.27 x10E3/uL
same,LYMPHOCYTE,"72 h, time 3 day",89.33%
same,MEAN CORPUSCULAR HEMOGLOBIN,"72 h, time 3 day",24.23 pg
same,MEAN CORPUSCULAR HEMOGLOBIN CONCENTRATION,"72 h, time 3 day",39 G/DL
same,MEAN CORPUSCULAR VOLUME,"72 h, time 3 day",62.03 fL
same,MONOCYTE,"72 h, time 3 day",2%
same,NEUTROPHIL,"72 h, time 3 day",8%
same,PLATELET COUNT,"72 h, time 3 day",1163.33 x10E3/uL
same,ALANINE AMINOTRANSFERASE,"72 h, time 3 day",44 u/L
same,ALBUMIN,"72 h, time 3 day",3.73 G/DL
same,ALKALINE PHOSPHATASE,"72 h, time 3 day",305.67 u/L
same,ASPARTATE AMINOTRANSFERASE,"72 h, time 3 day",56 u/L
same,BLOOD UREA NITROGEN,"72 h, time 3 day",11 mg/dL
same,CHLORIDE,"72 h, time 3 day",106.33 MEQ/L
same,CHOLESTEROL,"72 h, time 3 day",78 mg/dL
same,CREATINE PHOSPHOKINASE,"72 h, time 3 day",125.67 u/L
same,CREATININE,"72 h, time 3 day",0.47 mg/dL
same,GLUCOSE,"72 h, time 3 day",167.33 mg/dL
same,PHOSPHORUS,"72 h, time 3 day",11 mg/dL
same,POTASSIUM,"72 h, time 3 day",6.5 MEQ/L
same,SODIUM,"72 h, time 3 day",152 MEQ/L
same,TOTAL BILIRUBIN,"72 h, time 3 day",0.3 mg/dL
same,TOTAL PROTEIN,"72 h, time 3 day",5.9 G/DL
same,BASOPHIL,"120 h, time 5 day",0%
same,EOSINOPHIL,"120 h, time 5 day",0%
same,ERYTHROCYTE COUNT,"120 h, time 5 day",6.26 x10E6/uL
same,HEMATOCRIT,"120 h, time 5 day",37.07%
same,HEMOGLOBIN,"120 h, time 5 day",14.77 G/DL
same,LEUKOCYTE COUNT,"120 h, time 5 day",11.7 x10E3/uL
same,LYMPHOCYTE,"120 h, time 5 day",87%
same,MEAN CORPUSCULAR HEMOGLOBIN,"120 h, time 5 day",23.6 pg
same,MEAN CORPUSCULAR HEMOGLOBIN CONCENTRATION,"120 h, time 5 day",39.83 G/DL
same,MEAN CORPUSCULAR VOLUME,"120 h, time 5 day",59.2 fL
same,MONOCYTE,"120 h, time 5 day",1.67%
same,NEUTROPHIL,"120 h, time 5 day",11.33%
same,PLATELET COUNT,"120 h, time 5 day",1185.67 x10E3/uL
same,ALANINE AMINOTRANSFERASE,"120 h, time 5 day",32.67 u/L
same,ALBUMIN,"120 h, time 5 day",3.53 G/DL
same,ALKALINE PHOSPHATASE,"120 h, time 5 day",297.33 u/L
same,ASPARTATE AMINOTRANSFERASE,"120 h, time 5 day",51.67 u/L
same,BLOOD UREA NITROGEN,"120 h, time 5 day",13.33 mg/dL
same,CHLORIDE,"120 h, time 5 day",108.33 MEQ/L
same,CHOLESTEROL,"120 h, time 5 day",68 mg/dL
same,CREATINE PHOSPHOKINASE,"120 h, time 5 day",112 u/L
same,CREATININE,"120 h, time 5 day",0.53 mg/dL
same,GLUCOSE,"120 h, time 5 day",180.33 mg/dL
same,PHOSPHORUS,"120 h, time 5 day",10.03 mg/dL
same,POTASSIUM,"120 h, time 5 day",6.8 MEQ/L
same,SODIUM,"120 h, time 5 day",149 MEQ/L
same,TOTAL BILIRUBIN,"120 h, time 5 day",0.23 mg/dL
same,TOTAL PROTEIN,"120 h, time 5 day",5.7 G/DL
